PubChem BioAssay (NCI)
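GI50 marks 50% less growth. TGI: total growth inhibition.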

Experiments:
Test in all cases: inhibition of tumour cell growth, NCI panel, 384-well format
786-0 renal = test system: 786-0 renal
A498 renal = test system: A498 renal
A549 NSCLC = test system: A549 NSCLC
ACHN renal = test system: ACHN renal
BT-549 breast = test system: BT-549 breast
CAKI-1 renal = test system: CAKI-1 renal
CCRF-CEM leukemia = test system: CCRF-CEM leukemia
COLO 205 colon = test system: COLO 205 colon
DU-145 prostate = test system: DU-145 prostate
EKVX NSCLC = test system: EKVX NSCLC
HCC-2998 colon = test system: HCC-2998 colon
HCT-116 colon = test system: HCT-116 colon
HCT-15 colon = test system: HCT-15 colon
HL-60(TB) leukemia = test system: HL-60(TB) leukemia
HOP-62 NSCLC = test system: HOP-62 NSCLC
HOP-92 NSCLC = test system: HOP-92 NSCLC
HS 578T breast = test system: HS 578T breast
HT29 colon = test system: HT29 colon
IGROV1 ovarian = test system: IGROV1 ovarian
K-562 leukemia = test system: K-562 leukemia
KM12 colon = test system: KM12 colon
LOX IMVI melanoma = test system: LOX IMVI melanoma
M14 melanoma = test system: M14 melanoma
MALME-3M melanoma = test system: MALME-3M melanoma
MCF7 breast = test system: MCF7 breast
MDA-MB-231 breast = test system: MDA-MB-231 breast
MDA-MB-435 melanoma = test system: MDA-MB-435 melanoma
MDA-MB-468 breast = test system: MDA-MB-468 breast
MOLT-4 leukemia = test system: MOLT-4 leukemia
NCI-H226 lung = test system: NCI-H226 lung
NCI-H23 lung = test system: NCI-H23 lung
NCI-H322M lung = test system: NCI-H322M lung
NCI-H460 NSCLC = test system: NCI-H460 NSCLC
NCI-H522 lung = test system: NCI-H522 lung
NCI/ADR-RES ovarian = test system: NCI/ADR-RES ovarian
OVCAR-3 ovarian = test system: OVCAR-3 ovarian
OVCAR-4 ovarian = test system: OVCAR-4 ovarian
OVCAR-5 ovarian = test system: OVCAR-5 ovarian
OVCAR-8 ovarian = test system: OVCAR-8 ovarian
PC-3 prostate = test system: PC-3 prostate
RPMI-8226 leukemia = test system: RPMI-8226 leukemia
RXF 393 renal = test system: RXF 393 renal
SF-268 CNS = test system: SF-268 CNS
SF-295 CNS = test system: SF-295 CNS
SF-539 CNS = test system: SF-539 CNS
SK-MEL-2 melanoma = test system: SK-MEL-2 melanoma
SK-MEL-28 melanoma = test system: SK-MEL-28 melanoma
SK-MEL-5 melanoma = test system: SK-MEL-5 melanoma
SK-OV-3 ovarian = test system: SK-OV-3 ovarian
SN12C renal = test system: SN12C renal
SNB-19 CNS = test system: SNB-19 CNS
SW-620 colon = test system: SW-620 colon
T-47D breast = test system: T-47D breast
TK-10 renal = test system: TK-10 renal
U251 glioblastoma = test system: U251 glioblastoma
UACC-257 melanoma = test system: UACC-257 melanoma
UACC-62 melanoma = test system: UACC-62 melanoma
UO-31 renal = test system: UO-31 renal

SMILES: Cc1noc(C)c1-c1cnc2c(-c3ccc(C(=O)O)cc3)cn([C@@H](C)c3ccccn3)c2c1
- GI50 ([…]-0 renal): 147 nM
- TGI (786-0 renal): 9250 nM
- GI50 (A498 renal): 283 nM
- TGI (A498 renal): 2830 nM
- GI50 (A549 NSCLC): 755 nM
- TGI (A549 NSCLC): > 100000 nM
- GI50 (ACHN renal): 627 nM
- TGI (ACHN renal): 14900 nM
- GI50 (BT-549 breast): 60.1 nM
- TGI (BT-549 breast): 761 nM
- TGI (CAKI-1 renal): 3460 nM
- GI50 (CCRF-CEM leukemia): 75.8 nM
- TGI (CCRF-CEM leukemia): 2790 nM
- GI50 (COLO 205 colon): 418 nM
- TGI (COLO 205 colon): 6010 nM
- GI50 (DU-145 prostate): 2400 nM
- TGI (DU-145 prostate): > 100000 nM
- GI50 (EKVX NSCLC): 2950 nM
- TGI (EKVX NSCLC): > 100000 nM
- GI50 (HCC-2998 colon): 117 nM
- TGI (HCC-2998 colon): 1050 nM
- GI50 (HCT-116 colon): 552 nM
- TGI (HCT-116 colon): 23100 nM
- GI50 (HCT-15 colon): 205 nM
- TGI (HCT-15 colon): 10800 nM
- GI50 (HL-60(TB) leukemia): 16.1 nM
- TGI (HL-60(TB) leukemia): 142 nM
- GI50 (HOP-62 NSCLC): 228 nM
- TGI (HOP-62 NSCLC): 9580 nM
- GI50 (HOP-92 NSCLC): 188 nM
- TGI (HOP-92 NSCLC): 39400 nM
- GI50 (HS 578T breast): 51.4 nM
- TGI (HS 578T breast): 1280 nM
- GI50 (HT29 colon): 301 nM
- TGI (HT29 colon): > 100000 nM
- GI50 (IGROV1 ovarian): 78.7 nM
- TGI (IGROV1 ovarian): 1980 nM
- GI50 (K-562 leukemia): 173 nM
- TGI (K-562 leukemia): > 100000 nM
- GI50 (KM12 colon): 579 nM
- TGI (KM12 colon): 19300 nM
- GI50 (LOX IMVI melanoma): 144 nM
- TGI (LOX IMVI melanoma): 381 nM
- GI50 (M14 melanoma): 209 nM
- TGI (M14 melanoma): 51900 nM
- TGI (MALME-3M melanoma): 1730 nM
- GI50 (MCF7 breast): 15.9 nM
- TGI (MCF7 breast): 3130 nM
- GI50 (MDA-MB-231 breast): 123 nM
- TGI (MDA-MB-231 breast): 23800 nM
- GI50 (MDA-MB-435 melanoma): 805 nM
- TGI (MDA-MB-435 melanoma): > 100000 nM
- GI50 (MDA-MB-468 breast): 72.1 nM
- TGI (MDA-MB-468 breast): 919 nM
- GI50 (MOLT-4 leukemia): 103 nM
- TGI (MOLT-4 leukemia): 1470 nM
- GI50 (NCI-H226 lung): 406 nM
- TGI (NCI-H226 lung): 7350 nM
- GI50 (NCI-H23 lung): 366 nM
- TGI (NCI-H23 lung): 6370 nM
- GI50 (NCI-H322M lung): 619 nM
- TGI (NCI-H322M lung): 58400 nM
- GI50 (NCI-H460 NSCLC): 3170 nM
- TGI (NCI-H460 NSCLC): > 100000 nM
- GI50 (NCI-H522 lung): 15 nM
- TGI (NCI-H522 lung): 391 nM
- GI50 (NCI/ADR-RES ovarian): 1180 nM
- TGI (NCI/ADR-RES ovarian): 17200 nM
- GI50 (OVCAR-3 ovarian): 116 nM
- TGI (OVCAR-3 ovarian): 10300 nM
- GI50 (OVCAR-4 ovarian): 167 nM
- TGI (OVCAR-4 ovarian): 739 nM
- GI50 (OVCAR-5 ovarian): 525 nM
- TGI (OVCAR-5 ovarian): 27400 nM
- GI50 (OVCAR-8 ovarian): 234 nM
- TGI (OVCAR-8 ovarian): 2390 nM
- GI50 (PC-3 prostate): 467 nM
- TGI (PC-3 prostate): > 100000 nM
- GI50 (RPMI-8226 leukemia): 12 nM
- TGI (RPMI-8226 leukemia): 152 nM
- GI50 (RXF 393 renal): 254 nM
- TGI (RXF 393 renal): 1290 nM
- GI50 (SF-268 CNS): 1470 nM
- TGI (SF-268 CNS): 27000 nM
- GI50 (SF-295 CNS): 1460 nM
- TGI (SF-295 CNS): 28900 nM
- GI50 (SF-539 CNS): 292 nM
- TGI (SF-539 CNS): 1680 nM
- GI50 (SK-MEL-2 melanoma): 46.4 nM
- TGI (SK-MEL-2 melanoma): 14000 nM
- GI50 (SK-MEL-28 melanoma): 699 nM
- TGI (SK-MEL-28 melanoma): > 100000 nM
- GI50 (SK-MEL-5 melanoma): 61.6 nM
- TGI (SK-MEL-5 melanoma): 3080 nM
- GI50 (SK-OV-3 ovarian): 445 nM
- TGI (SK-OV-3 ovarian): 9820 nM
- GI50 (SN12C renal): 1040 nM
- TGI (SN12C renal): > 100000 nM
- GI50 (SNB-19 CNS): 554 nM
- TGI (SNB-19 CNS): > 100000 nM
- GI50 (SW-620 colon): 4750 nM
- TGI (SW-620 colon): 73900 nM
- GI50 (T-47D breast): 201 nM
- TGI (T-47D breast): 3310 nM
- GI50 (TK-10 renal): 34.3 nM
- TGI (TK-10 renal): 989 nM
- GI50 (U251 glioblastoma): 1770 nM
- TGI (U251 glioblastoma): 30100 nM
- GI50 (UACC-257 melanoma): 219 nM
- TGI (UACC-257 melanoma): 9840 nM
- GI50 (UACC-62 melanoma): 37.8 nM
- TGI (UACC-62 melanoma): 1270 nM
- GI50 (UO-31 renal): 323 nM
- TGI (UO-31 renal): 13400 nM
